Reference: the supplement of paper PMC10307832

What was measured:
Experiment in all cases: relative viability (nuclei count vs DMSO), 5 days (fraction); higher = more cells survive
[1] = compound: COC1=CC=C(C=C1)CN2C=CC3=C2C=C(C=C3)C(=O)NO + Nc1ncn([C@H]2C[C@H](O)[C@@H](CO)O2)c(=O)n1 [Decitabine] (partner 2 µM)
Method in brief: (§1)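 Lung cancer cell lines in 1536-well plates were dosed by pin tool the day after seeding, either with one drug alone or with a fixed anchor-drug dose plus five library-drug doses (not always all listed) in √10 steps. After 5 days, cells were fixed and their nuclei stained in one step (final 0.05% Triton X-100, 1% formaldehyde, 1 ug/ml Hoechst), then counted on 4× images. Relative viability is the nuclei count in treated wells divided by that in vehicle wells. Values are medians of duplicate plates.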

Veliparib + Alpelisib = compound: C[C@]1(c2nc3c(C(N)=O)cccc3[nH]2)CCCN1 [Veliparib] + Cc1nc(NC(=O)N2CCC[C@H]2C(N)=O)sc1-c1ccnc(C(C)(C)C(F)(F)F)c1 [Alpelisib] (partner 2 µM)
Method in brief: as §1

[2] = compound: COC1=CC=C(C=C1)CN2C=CC3=C2C=C(C=C3)C(=O)NO + O=C(CCCCCCC(=O)Nc1ccccc1)NO [Vorinostat] (partner 1 µM)
Method in brief: as §1

Veliparib + Lapatinib = compound: C[C@]1(c2nc3c(C(N)=O)cccc3[nH]2)CCCN1 [Veliparib] + CS(=O)(=O)CCNCc1ccc(-c2ccc3ncnc(Nc4ccc(OCc5cccc(F)c5)c(Cl)c4)c3c2)o1 [Lapatinib] (partner 2 µM)
Method in brief: as §1

| Cell Line | relative viability ([1]; first compound 0.08 µM) | relative viability ([1]; first compound 0.253 µM) | relative viability ([1]; first compound 0.8 µM) | relative viability ([1]; first compound 2.53 µM) | relative viability ([1]; first compound 8 µM) | relative viability (Veliparib + Alpelisib; first compound 0.02 µM) | relative viability (Veliparib + Alpelisib; first compound 0.06325 µM) | relative viability (Veliparib + Alpelisib; first compound 0.2 µM) | relative viability (Veliparib + Alpelisib; first compound 0.6325 µM) | relative viability (Veliparib + Alpelisib; first compound 2 µM) | relative viability ([2]; first compound 0.08 µM) | relative viability ([2]; first compound 0.253 µM) | relative viability ([2]; first compound 0.8 µM) | relative viability ([2]; first compound 2.53 µM) | relative viability ([2]; first compound 8 µM) | relative viability (Veliparib + Lapatinib; first compound 0.02 µM) | relative viability (Veliparib + Lapatinib; first compound 0.06325 µM) | relative viability (Veliparib + Lapatinib; first compound 0.2 µM) | relative viability (Veliparib + Lapatinib; first compound 0.6325 µM) | relative viability (Veliparib + Lapatinib; first compound 2 µM) |
| --- | --- | --- | --- | --- | --- | --- | --- | --- | --- | --- | --- | --- | --- | --- | --- | --- | --- | --- | --- | --- |
| HCC-366 | 0.231 | 0.365 | 0.351 | 0.337 | 0.264 | 0.452 | 0.234 | 0.365 | 0.384 | 0.411 | 0.107 | 0.303 | 0.385 | 0.407 | 0.223 | 1.06 | 0.897 | 0.929 | 0.974 | 1.09 |
| HCC-827 | 0.292 | 0.271 | 0.356 | 0.287 | 0.308 | 0.922 | 1.02 | 0.986 | 0.971 | 0.899 | 0.592 | 0.897 | 0.799 | 0.799 | 0.788 | 0.199 | 0.191 | 0.182 | 0.177 | 0.191 |
| HOP-62 | 0.173 | 0.217 | 0.216 | 0.27 | 0.244 | 1.11 | 0.928 | 1.15 | 0.836 | 0.785 | 0.39 | 0.666 | 0.528 | 0.748 | 0.531 | 1.14 | 0.878 | 0.951 | 0.99 | 1.12 |
| IA-LM | – | – | – | – | – | 0.796 | 0.764 | 0.684 | 0.503 | 0.968 | 0.801 | – | 0.971 | 1.05 | 0.961 | 0.85 | 0.561 | 0.771 | 0.846 | 1.04 |
| LC-2-ad | 0.853 | 0.871 | 0.81 | 0.773 | 0.816 | – | 0.783 | 0.846 | 0.926 | 0.897 | 0.58 | 0.742 | 0.748 | 0.701 | 0.592 | – | 0.813 | 0.967 | 0.94 | 0.951 |
| LCLC-97TM1 | – | 0.224 | 0.236 | 0.225 | 0.181 | 0.263 | 0.271 | 0.258 | – | 0.232 | – | 0.659 | 0.772 | 0.557 | 0.438 | 0.734 | 0.828 | 1.45 | – | 1.22 |
| LCLC-103H | 0.731 | 0.812 | 0.761 | 0.779 | 0.681 | 1.13 | 0.896 | 0.936 | 1.06 | 0.949 | 0.647 | 0.832 | 0.868 | 0.748 | 0.613 | – | – | – | – | – |
| LK-2 | – | 0.303 | 0.295 | 0.296 | 0.224 | – | 1.01 | 1.38 | 0.996 | 1.1 | 0.172 | 0.291 | 0.282 | 0.308 | 0.221 | 0.637 | 0.814 | 1.11 | 0.877 | 0.643 |
| LOU-NH91 | – | 0.828 | 0.831 | 0.851 | 0.824 | 0.698 | 0.72 | 0.76 | 0.706 | 0.748 | – | 0.953 | 0.906 | 0.963 | 0.884 | 0.708 | 0.656 | 0.82 | 0.735 | 0.781 |
